In patent US9120779B2, “Inhibitors of HCV NS5A” (PRESIDIO PHARMACEUTICALS, INC., priority 2008, dated 2015):

test system: HCV genotype 1b replicon in Huh 7 cells; test: HCV replicon assay (luciferase readout, 1b_Huh-Luc/Neo-ET cell line); format: cell-based; conditions: Hepatitis C virus, Huh-7, 72 h, read-out: Inhibition of HCV genotype 1b, Table 1, 72 h incubation
In short: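 Huh 7 cells carrying a bicistronic genotype 1b luciferase replicon treated with compound in triplicate for 72 h. Replicon level read as luciferase activity (Bright-Glo), expressed as % of control; EC50 from a sigmoidal Hill-slope fit, repeated several times.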

With `COC(=O)N[C@H](C(=O)N1CCC[C@H]1c1ncc([C@H]2CC[C@H](c3ccc(-c4cnc([C@@H]5CCCN5C(=O)[C@H](NC(=O)OC)c5ccccc5)[nH]4)cc3)CC2)[nH]1)C(C)C` [compound 2002] as the compound, how does the EC50 read?
Its EC50 is < 1 nM.

For `CC(C)[C@@H](NC(=O)N1CCOCC1)C(=O)N1CCC[C@H]1C(=O)N[C@H]1CC[C@H](c2ccc(-c3cnc([C@@H]4CCCN4C(=O)[C@H](NC(=O)N4CCOCC4)C(C)C)[nH]3)cc2)CC1` [compound 360], which EC50 is on record?
Its EC50 is 10 to 999 nM.

How did the EC50 turn out when `CC(C)(C)OC(=O)N[C@@H](C(=O)N1CCC[C@H]1c1ncc(-c2ccc(C3CCC(c4cnc([C@@H]5CCCN5C(=O)[C@H](NC(=O)OC(C)(C)C)c5ccccc5)[nH]4)CC3)cc2)[nH]1)c1ccccc1` (stereo partly shown) [compound 367] was run?
Its EC50 is < 1 nM.

same assay, conditions: Hepatitis C virus, Huh-7, 72 h, read-out: Inhibition of HCV genotype 1b, Table 3, 72 h incubation

With `COC(=O)N[C@@H](C(=O)N1CCOC[C@H]1c1ncc(C2CCN(c3c(F)cc(-c4cnc([C@@H]5CCCN5C(=O)[C@H](NC(=O)C5CC5)c5ccccc5)[nH]4)cc3F)CC2)[nH]1)c1ccccc1` [compound 502] as the compound, how does the EC50 read?
The EC50 was < 1 nM.

How did the EC50 turn out when `COC(=O)N[C@H](C(=O)N1CCC[C@H]1c1ncc(-c2cc(F)c(N3CCC(c4cnc([C@@H]5CCCN5C(=O)[C@@H](NC(=O)OC)C(C)C)[nH]4)CC3)c(F)c2)[nH]1)C(C)C` [compound 499] was run?
The EC50 was < 1 nM.

How did the EC50 turn out when `O=C(N[C@@H](C(=O)N1CCC[C@H]1c1ncc(-c2cc(F)c(N3CCC(c4cnc([C@@H]5CCCCN5C(=O)[C@H](NC(=O)C5CC5)c5ccccc5)[nH]4)CC3)c(F)c2)[nH]1)c1ccccc1)C1CC1` [compound 484] was run?
The EC50 was < 1 nM.

same assay, conditions: Hepatitis C virus, Huh-7, 72 h, read-out: Inhibition of HCV genotype 1b, Table 4, 72 h incubation

For `COC(=O)N[C@H](C(=O)N[C@@H](C)c1nc2ccc(-c3ccc(-c4ccc5nc([C@@H]6CCCN6C(=O)[C@@H](c6ccccc6)N(C)C)[nH]c5c4)cc3)cc2[nH]1)C(C)C` [compound 2037], which EC50 is on record?
Its EC50 is < 1 nM.

`COC(=O)N[C@H](C(=O)N1CCC[C@H]1c1nc2ccc(-c3ccc(-c4ccc5nc([C@@H]6CCCN6C(=O)[C@@H](C(C)C)N(C)C)[nH]c5c4)cc3)cc2[nH]1)C(C)C` [compound 934] was tested. Which EC50 did it give?
Its EC50 is < 1 nM.

same assay, conditions: Hepatitis C virus, Huh-7, 72 h, read-out: Inhibition of HCV genotype 1b, Table 5, 72 h incubation

`COC(=O)N[C@H](C(=O)N1CCOC[C@H]1c1ncc(-c2ccc(C34CCC(c5cnc([C@@H]6CCCN6C(=O)[C@@H](NC(=O)OC)C(C)C)[nH]5)(CC3)CC4)cc2)[nH]1)C(C)C` [compound 2087] was tested. Which EC50 did it give?
The EC50 was < 1 nM.

Which EC50 does the source give for `COC(=O)N[C@H](C(=O)N1CCC[C@H]1c1ncc(C23CCC(c4ccc(-c5cnc([C@@H]6CCCN6C(=O)[C@H](C(C)C)N(C)C)[nH]5)cc4)(CC2)CC3)[nH]1)C(C)C` [compound 2077] here?
Its EC50 is < 1 nM.

With `COC(=O)N[C@H](C(=O)N1CCC[C@H]1c1ncc(C23CCC(c4ccc(-c5cnc([C@@H]6CCCN6C(=O)[C@@H](c6ccccc6)N6CCCCC6)[nH]5)cc4)(CC2)CC3)[nH]1)C(C)C` [compound 2069] as the compound, how does the EC50 read?
The EC50 was < 1 nM.

Which EC50 does the source give for `CC(C)[C@H](NC(=O)N1CC[C@@H](O)C1)C(=O)N1CCC[C@H]1c1ncc(-c2ccc(C34CCC(c5cnc([C@@H]6CCCN6C(=O)[C@@H](NC(=O)N6CC[C@@H](O)C6)C(C)C)[nH]5)(CC3)CC4)cc2)[nH]1` [compound 629] here?
Its EC50 is > 1000 nM.

For `COC(=O)N[C@@H](C(=O)N1CCC[C@H]1c1ncc(-c2ccc(C34CCC(c5cnc([C@@H]6CCCN6C(=O)[C@H](OC)c6ccccc6)[nH]5)(CC3)CC4)cc2)[nH]1)c1ccccc1` [compound 615], which EC50 is on record?
The EC50 was < 1 nM.

With `COC(=O)N[C@H](C(=O)N1CCC[C@H]1c1ncc(-c2ccc(C34CCC(c5cnc([C@@H]6CCCN6C(=O)[C@H](NC(=O)OC6CCOCC6)C(C)C)[nH]5)(CC3)CC4)cc2)[nH]1)C(C)C` [compound 2084] as the compound, how does the EC50 read?
Its EC50 is < 1 nM.

Which EC50 does the source give for `COC(=O)N[C@H](C(=O)N1CCC[C@H]1c1ncc(-c2ccc(C34CCC(c5cnc([C@@H]6CCCN6C(=O)[C@@H](NC(=O)OC)C6CCOCC6)[nH]5)(CC3)CC4)cc2)[nH]1)C(C)C` [compound 2106] here?
The EC50 was < 1 nM.

Which EC50 does the source give for `COC(=O)N[C@H](C(=O)N1CCC[C@H]1c1ncc(-c2ccc(C34CCC(c5cnc([C@@H]6CCCN6C(=O)[C@H](NC(=O)OC6CCOCC6)c6ccccc6)[nH]5)(CC3)CC4)cc2)[nH]1)C(C)C` [compound 2108] here?
Its EC50 is < 1 nM.
